Reference: patent US11597729B2, “Tropomyosin receptor kinase inhibitor, preparation method therefor and use thereof” (JIANGSU VCARE PHARMATECH CO., LTD., priority 2018, dated 2023)

Assays:
TrkA = TrkA (Homo sapiens, UniProt P04629); experiment: Inhibitory activity test for Trk kinases (γ-33P-ATP isotope test), TrkA; assay type: biochemical; conditions: 33P-ATP 10 μM, 2 h reaction; read-out: Kinase IC50 TrkA
Description: (§1) Inhibitory Activity Test for Trk Kinases
(§2) In this experiment, the γ-^33P-ATP isotope test was used to test the inhibition effect of a compound on kinases TrkA, TrkB and TrkC, and the half maximal inhibitory concentration IC50 of the inhibitory activity of the compound on the enzymes was obtained.
(§3) A compound was dissolved in 100% DMSO to a particular concentration, and then the resulting solution was gradient-diluted by an automatic loading device to different concentrations of the test samples (DMSO dissolving solutions).
(§4) 3.1. The reaction substrate was diluted using the base reaction buffer;
(§5) 3.2. The kinase was added into the substrate solution and mixed gently and uniformly;
(§6) 3.3. The compounds of different concentrations diluted in 100% DMSO were added into the kinase solution using an automatic loading system, and incubated for 20 min at room temperature;
(§7) 3.4. ^33P-ATP (10 μM, 10 μCi/μl) was added at room temperature to initiate the kinase reaction, and the reaction was carried out for 2 h.
(§8) The reaction solution was subjected to an ion exchange filtration system to remove unreacted ATP and the generated ADP ions during the reaction. Then, the radiometric quantity of ^33P isotope in the substrate was detected.
(§9) The kinase activity in the system with the addition of the inhibitors of different concentrations was calculated from the radiometric quantity, to obtain the inhibitory effect of the compounds with different concentrations on the kinase activity. Fitting was performed using graphpad prism to obtain IC50 values of the compounds for inhibition.

TrkC = TrkC (Homo sapiens, UniProt Q16288); experiment: Inhibitory activity test for Trk kinases (γ-33P-ATP isotope test), TrkC; assay type: biochemical; conditions: 33P-ATP 10 μM, 2 h reaction; read-out: Kinase IC50 TrkC
TrkC, sequence (Q16288 32-839, species assumed): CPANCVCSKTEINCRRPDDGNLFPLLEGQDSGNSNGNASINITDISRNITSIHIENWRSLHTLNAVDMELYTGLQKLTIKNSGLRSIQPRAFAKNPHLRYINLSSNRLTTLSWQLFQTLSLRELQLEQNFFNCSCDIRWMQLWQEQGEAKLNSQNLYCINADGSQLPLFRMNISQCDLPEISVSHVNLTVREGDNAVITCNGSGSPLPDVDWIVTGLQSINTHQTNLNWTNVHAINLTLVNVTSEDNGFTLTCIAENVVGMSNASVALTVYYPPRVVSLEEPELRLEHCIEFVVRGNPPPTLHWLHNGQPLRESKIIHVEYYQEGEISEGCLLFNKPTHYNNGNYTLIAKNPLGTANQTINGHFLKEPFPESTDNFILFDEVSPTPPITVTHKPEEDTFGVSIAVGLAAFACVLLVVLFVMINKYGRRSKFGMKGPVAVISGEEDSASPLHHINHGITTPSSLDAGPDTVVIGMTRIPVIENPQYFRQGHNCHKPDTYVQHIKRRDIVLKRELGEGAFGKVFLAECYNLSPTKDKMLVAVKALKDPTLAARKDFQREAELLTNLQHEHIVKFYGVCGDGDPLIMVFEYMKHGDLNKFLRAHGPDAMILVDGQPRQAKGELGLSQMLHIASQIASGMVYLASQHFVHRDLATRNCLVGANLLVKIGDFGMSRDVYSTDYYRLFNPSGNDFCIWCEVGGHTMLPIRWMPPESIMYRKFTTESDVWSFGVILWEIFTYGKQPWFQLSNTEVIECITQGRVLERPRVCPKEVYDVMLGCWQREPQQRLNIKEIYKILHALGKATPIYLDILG
Description: as §1, §2, §3, §4, §5, §6, §7, §8, §9

TrkB = TrkB (Homo sapiens, UniProt Q16620); experiment: Inhibitory activity test for Trk kinases (γ-33P-ATP isotope test), TrkB; assay type: biochemical; conditions: 33P-ATP 10 μM, 2 h reaction; read-out: Kinase IC50 TrkB
TrkB, sequence (Q16620 32-822, species assumed): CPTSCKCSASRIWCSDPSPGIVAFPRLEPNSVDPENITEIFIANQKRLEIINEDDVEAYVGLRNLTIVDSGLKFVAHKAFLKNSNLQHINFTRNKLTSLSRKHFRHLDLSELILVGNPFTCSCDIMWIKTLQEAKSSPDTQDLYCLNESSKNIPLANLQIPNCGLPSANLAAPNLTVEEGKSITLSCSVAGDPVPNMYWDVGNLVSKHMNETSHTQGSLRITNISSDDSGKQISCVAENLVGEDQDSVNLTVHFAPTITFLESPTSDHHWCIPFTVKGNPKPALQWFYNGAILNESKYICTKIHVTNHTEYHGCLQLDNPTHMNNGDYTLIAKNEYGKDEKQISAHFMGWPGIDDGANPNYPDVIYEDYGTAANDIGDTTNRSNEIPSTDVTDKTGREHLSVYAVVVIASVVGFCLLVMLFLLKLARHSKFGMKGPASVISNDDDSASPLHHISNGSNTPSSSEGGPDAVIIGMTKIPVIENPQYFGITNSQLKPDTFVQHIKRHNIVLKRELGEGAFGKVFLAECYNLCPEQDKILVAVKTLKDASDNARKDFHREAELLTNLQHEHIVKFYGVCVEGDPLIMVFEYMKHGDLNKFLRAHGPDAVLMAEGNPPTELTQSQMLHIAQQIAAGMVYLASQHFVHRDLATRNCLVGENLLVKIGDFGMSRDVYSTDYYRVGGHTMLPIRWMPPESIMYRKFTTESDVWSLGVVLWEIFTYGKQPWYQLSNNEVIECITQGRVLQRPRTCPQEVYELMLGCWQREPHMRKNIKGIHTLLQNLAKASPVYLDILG
Description: as §1, §2, §3, §4, §5, §6, §7, §8, §9

BaF3-tel-NTRK1 = experiment: Growth inhibition test, CellTiter-Glo, tel-NTRK1-BaF3 cells; assay type: cell-based; conditions: 72 hours incubation, read-out: Cell GI50 BaF3-tel-NTRK1
Description: (§10) Growth Inhibition Test for Tel-NTRK1-BaF3 and BaF3-LMNA-NTRK1 Cells
(§11) In this experiment, the CellTiter-Glo cell proliferation fluorescence assay was used to test the growth inhibitory effect of a compound on tel-NTRK1-BaF3 and BaF3-LMNA-NTRK1 transgenic cells, and the half maximal growth inhibitory concentration GI50 of the compound on the cells was obtained.
(§12) A compound to be tested was dissolved in DMSO to formulate 10 mM of a mother solution. The mother solution was 3× diluted to 10 mM, 3.333 mM, 1.111 mM, 0.370 mM, 0.123 mM, 0.041 mM, 0.014 mM, 0.005 mM, and 0.002 mM. The prepared solutions were each stored in a 0.5 ml sterilized dorft tube (Corning, USA). In addition, an equal volume of DMSO solvent was used as a blank control. With 10 concentration gradients, the plate was stored in vacuum at −20° C.
The tel-NTRK1-BaF3 and BaF3-LMNA-NTRK1 cell lines were cultured with RPMI 1640 (Corning, N.Y., USA)+10% fetal bovine serum (Gibico, Invitrogen, USA). After the cells were thawed, they were cultured for two generations to be tested.
(§13) Logarithmic growth phase cells (2000-2500 cells/well) were inoculated in a 12×8 96-well white opaque cell culture plate (Corning 3570, NY, USA) in a volume of 100 μL per well, and a drug was added to the cell plate (0.1 μL/well) at the final concentration of the compound of 10 μM, 3.3 μM, 1.1 μM, 0.37 μM, 0.12 IM, 0.04 μM, 0.014 IM, 0.005 μM, and 0.002 μM (0.4 uL of the drug solution was added to 400 ul of the cell homogenate, and then mixed uniformly, and the resulting mixture was added at 100 ul per well). The plate was incubated at 37° C. in a 5% CO2 incubator for 72 hours, and then 20 μL CellTiter-Glo cell proliferation fluorescence assay reagent was added. The plate was allowed to stand for 10 min, and read in the Envision Plate-Reader. […]
A corresponding […] value RLU of each well was obtained by reading in the Envision Plate-reader. […]
The biochemical activity of the compounds of the present invention was determined by the above experiment, and the measured GI50 values are shown in table 2: […]

[1] = Metabolic stability in human liver microsomes; assay type: in vitro ADME; conditions: for Remaining % (60 min) / microsomal CLint at 1 μmol/L: human liver microsomes 0.5 mg/mL, compound 1 μmol/L; for Remaining % (60 min): 37° C.; for Negative control Remaining % (60 min): human liver microsomes, negative control incubation; for half-life at 1 μmol/L: human, liver microsomes; for half-life at 1 μmol/L / microsomal CLint at 1 μmol/L: pH 7.4; for microsomal CLint at 1 μmol/L: read-out: Clint (μL/min/mg protein)
Description: Testing on Metabolic Stability of Compounds in Human Liver Microsomes
The total volume of an incubation system was 250 μL, and 50 mmol/L PBS buffer (pH=7.4) was used to prepare incubation solutions of liver microsomes from various species with a protein concentration of 0.5 mg/mL. Before the start of the incubation, 2.5 μL of a 100 μmol/L compound to be tested was mixed with 197.5 μL of the above incubation solution, pre-incubated in a 37° C. water bath for 5 min, and then added with a 50 μL reducing coenzyme II solution (5 mmol/L) that was likewise pre-incubated for 5 min to start the reaction (in the reaction system, the protein content of liver microsomes from various species was 0.5 g/L, and the final concentration of the compound to be tested was 1 μmol/L), incubated in a 37° C. water bath with shaking, and taken out at 0, 5, 15, 30, and 60 min. 600 μL of a methanol solution of mixed positive and negative internal standards with internal standards Terfenadine (positive ion internal standard, 25 ng/mL) and Tolbutamide (negative ion internal standard, 50 ng/mL) was immediately added to terminate the reaction. The incubation solution after termination was shaken for 2 min and centrifuged (4° C., 16000 r/min) for 10 min, and the supernatant was taken for LC-MS/MS detection to quantitatively analyze the remaining amount of the parent drug. (DMSO<0.1%).
The concentration of the compound at 0 min incubation was regarded as 100%, and the concentrations at other incubation time points were converted into the remaining percentages. The natural logarithm of the remaining percentage at each time point was linearly regressed against the incubation time, and the slope k was calculated. According to the formula T1/2=−0.693/k, the in vitro half-life was calculated. Clearance in liver microsomes (CLint (μL/min/mg protein)=Ln (2)*1000/T1/2 (min)/Protein Conc(mg/ml)).
Test data of metabolic stability of the compounds of the present invention in human liver microsomes are listed in detail in table 3: […]

BaF3-LMNA-NTRK1 = experiment: Growth inhibition test, CellTiter-Glo, BaF3-LMNA-NTRK1 cells; assay type: cell-based; conditions: 72 hours incubation, read-out: Cell GI50 BaF3-LMNA-NTRK1
Description: as §10, §11
as §12, with “In addition, an equal volume of DMSO solvent was used as a blank control. With 10 concentration gradients, the plate was stored in vacuum at −20° C.” left out
as §13, with “added.” for “added. The plate was allowed to stand for 10 min, and read in the Envision Plate-Reader.”

TrkA, sequence (P04629 33-796, species assumed): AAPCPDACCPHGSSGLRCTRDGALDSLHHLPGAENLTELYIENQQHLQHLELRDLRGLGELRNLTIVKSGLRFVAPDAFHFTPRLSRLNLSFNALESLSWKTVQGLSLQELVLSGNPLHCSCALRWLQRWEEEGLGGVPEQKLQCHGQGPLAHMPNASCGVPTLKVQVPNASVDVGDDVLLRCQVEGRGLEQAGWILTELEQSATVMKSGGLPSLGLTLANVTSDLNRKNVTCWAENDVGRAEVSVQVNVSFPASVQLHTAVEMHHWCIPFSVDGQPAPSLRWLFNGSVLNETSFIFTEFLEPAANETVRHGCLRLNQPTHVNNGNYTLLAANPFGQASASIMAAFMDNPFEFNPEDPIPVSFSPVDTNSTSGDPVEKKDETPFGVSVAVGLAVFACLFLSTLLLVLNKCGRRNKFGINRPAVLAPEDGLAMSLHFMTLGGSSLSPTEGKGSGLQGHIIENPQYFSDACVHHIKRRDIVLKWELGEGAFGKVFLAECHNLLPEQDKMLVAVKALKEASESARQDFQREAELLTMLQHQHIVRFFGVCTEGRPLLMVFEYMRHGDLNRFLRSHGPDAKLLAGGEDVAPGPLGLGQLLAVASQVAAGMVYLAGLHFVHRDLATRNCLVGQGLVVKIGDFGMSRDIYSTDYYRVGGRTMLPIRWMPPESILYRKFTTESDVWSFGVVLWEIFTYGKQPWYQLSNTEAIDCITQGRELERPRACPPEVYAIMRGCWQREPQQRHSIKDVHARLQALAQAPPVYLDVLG

Question: What does the source list for `CC1Cc2ncc(F)cc2[C@H]2CCCN2c2ccn3ncc(c3n2)C(=O)NN1C1CC1` (single isomer, unassigned) [Example 3a, (1^3E,1^4E,2^2R,5R or S)-6-cyclopropyl-3^3-fluoro-5-methyl-6,7-diazepine-1(5,3)-pyrazolo(1,5-a]pyrimidine-3(3,2)-pyridine-2(1,2)-pyrrolidine cyclooctane-8-one]?
Answer: IC50 (TrkA): 2.27 nM; IC50 (TrkC): 0.46 nM; IC50 (TrkB): 1.58 nM

Question: For `CC1Cc2ncc(F)cc2[C@H]2CCCN2c2ccn3ncc(c3n2)C(=O)NN1C1CC1` (single isomer, unassigned) [Example 3b, (1^3E,1^4E,2^2R,5R or S)-6-cyclopropyl-3^5-fluoro-5-methyl-6,7-diazepine-1(5,3)-pyrazolo(1,5-a]pyrimidine-3(3,2)-pyridine-2(1,2)-pyrrolidine cyclooctane-8-one], which IC50 (TrkA) is on record?
Answer: 2.16 nM

Question: What about the IC50 (TrkC) of the same compound?
Answer: 0.38 nM

Question: What about the IC50 (TrkB) of the same compound?
Answer: 1.13 nM

Question: Which IC50 (TrkA) does the source give for `CC1Cc2ncc(F)cc2[C@H]2CCCN2c2ccn3ncc(c3n2)C(=O)NN1C` (single isomer, unassigned) [Example 7a, (1^3E,1^4E,2^2R,5R or S)-3^5-fluoro-5,6-dimethyl-6,7-diazepine-1(5,3)-pyrazolo[1,5-a]pyrimidine-3(3,2)-pyridine-2(1,2)-pyrrolidine cyclooctane-8-one] here?
Answer: 3.2 nM

Question: What about the IC50 (TrkC) of the same compound?
Answer: 0.58 nM

Question: And the IC50 (TrkB)?
Answer: 4.04 nM

Question: Which results are given for `CC1Cc2ncc(F)cc2[C@H]2CCCN2c2ccn3ncc(c3n2)C(=O)NN1C` (single isomer, unassigned) [Example 7b, (1^3E,1^4E,2^2R,5R or S)-3^5-fluoro-5,6-dimethyl-6,7-diazepine-1(5,3)-pyrazolo[1,5-a]pyrimidine-3(3,2)-pyridine-2(1,2)-pyrrolidine cyclooctane-8-one]?
Answer: IC50 (TrkA): 2.62 nM; IC50 (TrkC): 0.19 nM; IC50 (TrkB): 0.71 nM

Question: With `CCN1NC(=O)c2cnn3ccc(nc23)N2CCC[C@@H]2c2cc(F)cnc2CC1C` (single isomer, unassigned) [Example 8a, (1^3E,1^4E,2^2R,5R or S)-3^5-fluoro-6-ethyl-5-methyl-6,7-diazepine-1(5,3)-pyrazolo[1,5-a]pyrimidine-3(3,2)-pyridine-2(1,2)-pyrrolidine cyclooctane-8-one] as the compound, how does the IC50 (TrkA) read?
Answer: 4.01 nM

Question: What about the IC50 (TrkC) of the same compound?
Answer: 0.76 nM

Question: What about the IC50 (TrkB) of the same compound?
Answer: 6.19 nM

Question: For `CCN1NC(=O)c2cnn3ccc(nc23)N2CCC[C@@H]2c2cc(F)cnc2CC1C` (single isomer, unassigned) [Example 8b, (1^3E,1^4E,2^2R,5R or S)-3^5-fluoro-6-ethyl-5-methyl-6,7-diazepine-1(5,3)-pyrazolo[1,5-a]pyrimidine-3(3,2)-pyridine-2(1,2)-pyrrolidine cyclooctane-8-one], which IC50 (TrkA) is on record?
Answer: 1.85 nM

Question: What about the IC50 (TrkC) of the same compound?
Answer: 0.34 nM

Question: And the IC50 (TrkB)?
Answer: 1.35 nM

Question: Which IC50 (TrkA) does the source give for `CC1Cc2ncc(F)cc2[C@H]2CCCN2c2ccn3ncc(c3n2)C(=O)NN1C1CC1` (stereo partly drawn) [Example 2, (1^3E,1^4E,2^2R)-6-cyclopropylamino-3^5-fluoro-5-methyl-6,7-diazepine-1(5,3)-pyrazolo[1,5-a]pyrimidine-3(3,2)-azabenzene-2(1,2)-pyrrolidine cyclooctane-8-one] here?
Answer: 3.81 nM

Question: And the GI50 (BaF3-tel-NTRK1)?
Answer: 18 nM

Question: For `CN1CCc2ncc(F)cc2[C@H]2CCCN2c2ccn3ncc(c3n2)C(=O)N1` [Example 4, (R,1^3E,1^4E)-3^5-fluoro-6-methyl-6,7-diazepine-1(5,3)-pyrazolo[1,5-a]pyrimidine-3(3,2)-azabenzene-2(1,2)-pyrrolidine cyclooctane-8-one], which “Remaining % (60 min)” value [1] is on record?
Answer: 88.39%

Question: What about the “Negative control Remaining % (60 min)” value [1] of the same compound?
Answer: 108.0%

Question: What about the half-life at 1 μmol/L [1] of the same compound?
Answer: 217 min

Question: And the microsomal CLint at 1 μmol/L [1]?
Answer: 6.4 µL/min/mg

Question: What about the IC50 (TrkA) of the same compound?
Answer: 12.6 nM

Question: For `CCN1CCc2ncc(F)cc2[C@H]2CCCN2c2ccn3ncc(c3n2)C(=O)N1` [Example 5, (R,1^3E,1^4E)-6-ethyl-3^3-fluoro-6,7-diazepine-1(5,3)-pyrazolo[1,5-a]pyrimidine-3(3,2)-azabenzene-2(1,2)-pyrrolidine cyclooctane-8-one], which IC50 (TrkA) is on record?
Answer: 7.92 nM

Question: With `CC(C)N1CCc2ncc(F)cc2[C@H]2CCCN2c2ccn3ncc(c3n2)C(=O)N1` [Example 6, (R,1^3E,1^4E)-3^5-fluoro-6-isopropyl-6,7-diazepine-1(5,3)-pyrazolo[1,5-a]pyrimidine-3(3,2)-pyridine-2(1,2)-pyrrolidine cyclooctane-8-one] as the compound, how does the IC50 (TrkA) read?
Answer: 2.09 nM

Question: And the IC50 (TrkC)?
Answer: 0.29 nM

Question: And the IC50 (TrkB)?
Answer: 0.83 nM

Question: For `CC(C)CN1CCc2ncc(F)cc2[C@H]2CCCN2c2ccn3ncc(c3n2)C(=O)N1` [Example 9, (R,1^3E,1^4E)-3^5-fluoro-6-isobutyl-6,7-diazepine-1(5,3)-pyrazolo[1,5-a]pyrimidine-3(3,2)-pyridine-2(1,2)-pyrrolidine cyclooctane-8-one], which IC50 (TrkA) is on record?
Answer: 2.36 nM

Question: What about the IC50 (TrkC) of the same compound?
Answer: 0.32 nM

Question: And the IC50 (TrkB)?
Answer: 2.16 nM

Question: Which results are given for `O=C(Nc1cnn2ccc(N3CCC[C@@H]3c3cc(F)ccc3F)nc12)N1CC[C@H](O)C1` [LOXO-101, reference compound]?
Answer: Remaining % (60 min) [1]: 47.78%; Negative control Remaining % (60 min) [1]: 95.9%; half-life at 1 μmol/L [1]: 59.2 min; microsomal CLint at 1 μmol/L [1]: 23.4 µL/min/mg; GI50 (BaF3-tel-NTRK1): 24.6 nM; GI50 (BaF3-LMNA-NTRK1): 35.7 nM

Question: With `C[C@@H]1CCc2ncc(F)cc2[C@H]2CCCN2c2ccn3ncc(c3n2)C(=O)N1` [LOXO-195, reference compound] as the compound, how does the “Remaining % (60 min)” value [1] read?
Answer: 6.70%

Question: And the “Negative control Remaining % (60 min)” value [1]?
Answer: 102%

Question: And the half-life at 1 μmol/L [1]?
Answer: 15.3 min

Question: What about the microsomal CLint at 1 μmol/L [1] of the same compound?
Answer: 90.6 µL/min/mg
